From article PMC7471899 (2020)
Several values for one entry are separate records, joined by “and”; a condition that tells them apart may be missing. Equal values may be shown once.

Legend:
[1] = test system: 22_TERRA (RNA, G4) AGGGUUAGGGUUAGGGUUAGGG; assay: fluorescent intercalator displacement (FID); conditions: 10 mM KCl + 10 mM potassium phosphate (20 mM K+); pH 7, room temperature; 0.25 µM RNA; 0.5 µM thiazole orange displaced
[2] = test system: 26_ds (RNA, hairpin) CAAUCGGAUCGAAUUCGAUCCGAUUG; assay: fluorescent intercalator displacement (FID); conditions: 10 mM KCl + 10 mM potassium phosphate (20 mM K+); pH 7, room temperature; 0.25 µM RNA; 0.5 µM thiazole orange displaced
[3] = test system: 22_TERRA_2Ap7 (RNA, G4, 2-aminopurine at 7) AGGGUUAGGGUUAGGGUUAGGG; assay: 2-aminopurine fluorescence quenching; conditions: 10 mM KCl + 10 mM potassium phosphate; pH 7.0, room temperature; 2.5 μM RNA; 2.5 or 5 μM compound
[4] = test system: 22_TERRA_2Ap13 (RNA, G4, 2-aminopurine at 13) AGGGUUAGGGUUAGGGUUAGGG; assay: 2-aminopurine fluorescence quenching; conditions: 10 mM KCl + 10 mM potassium phosphate; pH 7.0, room temperature; 2.5 μM RNA; 2.5 or 5 μM compound
[5] = test system: 22_TERRA_2Ap19 (RNA, G4, 2-aminopurine at 19) AGGGUUAGGGUUAGGGUUAGGG; assay: 2-aminopurine fluorescence quenching; conditions: 10 mM KCl + 10 mM potassium phosphate; pH 7.0, room temperature; 2.5 μM RNA; 2.5 or 5 μM compound

Row | SMILES | DC50 [1] | DC50 [2] | binding [3] | binding [4] | binding [5]
1 | C(=NC(COCc1ccc(COCC(N=Cc2ccccn2)c2ccccc2)cc1)c1ccccc1)c1ccccn1.C(=NC(COCc1ccc(COCC(N=Cc2ccccn2)c2ccccc2)cc1)c1ccccc1)c1ccccn1.C(=NC(COCc1ccc(COCC(N=Cc2ccccn2)c2ccccc2)cc1)c1ccccc1)c1ccccn1.[Fe+2].[Fe+2] (stereo not shown) [5a] | 470 ± 50 nM and 570 ± 60 nM | 720 ± 20 nM and 950 ± 80 nM | – | – | –
2 | C(=NC(COCc1cccc(COCC(N=Cc2ccccn2)c2ccccc2)c1)c1ccccc1)c1ccccn1.C(=NC(COCc1cccc(COCC(N=Cc2ccccn2)c2ccccc2)c1)c1ccccc1)c1ccccn1.C(=NC(COCc1cccc(COCC(N=Cc2ccccn2)c2ccccc2)c1)c1ccccc1)c1ccccn1.[Fe+2].[Fe+2] (stereo not shown) [5b] | 410 ± 40 nM and 270 ± 20 nM | 1470 ± 90 nM and 1580 ± 100 nM | yes | yes | yes
3 | C(=NC(COCc1ccc(-c2ccc(COCC(N=Cc3ccccn3)c3ccccc3)cc2)cc1)c1ccccc1)c1ccccn1.C(=NC(COCc1ccc(-c2ccc(COCC(N=Cc3ccccn3)c3ccccc3)cc2)cc1)c1ccccc1)c1ccccn1.C(=NC(COCc1ccc(-c2ccc(COCC(N=Cc3ccccn3)c3ccccc3)cc2)cc1)c1ccccc1)c1ccccn1.[Fe+2].[Fe+2] (stereo not shown) [5c] | 590 ± 40 nM and 690 ± 60 nM | 830 ± 40 nM and 900 ± 70 nM | – | – | –
4 | C(=NC(COCc1ccc(Oc2ccc(COCC(N=Cc3ccccn3)c3ccccc3)cc2)cc1)c1ccccc1)c1ccccn1.C(=NC(COCc1ccc(Oc2ccc(COCC(N=Cc3ccccn3)c3ccccc3)cc2)cc1)c1ccccc1)c1ccccn1.C(=NC(COCc1ccc(Oc2ccc(COCC(N=Cc3ccccn3)c3ccccc3)cc2)cc1)c1ccccc1)c1ccccn1.[Fe+2].[Fe+2] (stereo not shown) [5d] | 590 ± 10 nM and 610 ± 20 nM | 760 ± 30 nM and 820 ± 30 nM | – | – | –
5 | C(=NC(COCc1ccc(Sc2ccc(COCC(N=Cc3ccccn3)c3ccccc3)cc2)cc1)c1ccccc1)c1ccccn1.C(=NC(COCc1ccc(Sc2ccc(COCC(N=Cc3ccccn3)c3ccccc3)cc2)cc1)c1ccccc1)c1ccccn1.C(=NC(COCc1ccc(Sc2ccc(COCC(N=Cc3ccccn3)c3ccccc3)cc2)cc1)c1ccccc1)c1ccccn1.[Fe+2].[Fe+2] (stereo not shown) [5e] | 680 ± 30 nM and 660 ± 20 nM | 910 ± 40 nM and 930 ± 30 nM | – | – | –
6 | C(=NC(COCc1ccc(Cc2ccc(COCC(N=Cc3ccccn3)c3ccccc3)cc2)cc1)c1ccccc1)c1ccccn1.C(=NC(COCc1ccc(Cc2ccc(COCC(N=Cc3ccccn3)c3ccccc3)cc2)cc1)c1ccccc1)c1ccccn1.C(=NC(COCc1ccc(Cc2ccc(COCC(N=Cc3ccccn3)c3ccccc3)cc2)cc1)c1ccccc1)c1ccccn1.[Fe+2].[Fe+2] (stereo not shown) [5f] | 470 ± 50 nM and 600 ± 60 nM | 720 ± 70 nM and 800 ± 50 nM | – | – | –
7 | C(=NC(COCc1ccc(CCc2ccc(COCC(N=Cc3ccccn3)c3ccccc3)cc2)cc1)c1ccccc1)c1ccccn1.C(=NC(COCc1ccc(CCc2ccc(COCC(N=Cc3ccccn3)c3ccccc3)cc2)cc1)c1ccccc1)c1ccccn1.C(=NC(COCc1ccc(CCc2ccc(COCC(N=Cc3ccccn3)c3ccccc3)cc2)cc1)c1ccccc1)c1ccccn1.[Fe+2].[Fe+2] (stereo not shown) [5g] | 510 ± 30 nM and 570 ± 50 nM | 780 ± 40 nM and 770 ± 50 nM | – | – | –
8 | C(=NC(COCc1ccc2oc3ccc(COCC(N=Cc4ccccn4)c4ccccc4)cc3c2c1)c1ccccc1)c1ccccn1.C(=NC(COCc1ccc2oc3ccc(COCC(N=Cc4ccccn4)c4ccccc4)cc3c2c1)c1ccccc1)c1ccccn1.C(=NC(COCc1ccc2oc3ccc(COCC(N=Cc4ccccn4)c4ccccc4)cc3c2c1)c1ccccc1)c1ccccn1.[Fe+2].[Fe+2] (stereo not shown) [5h] | 630 ± 40 nM and 640 ± 50 nM | 870 ± 60 nM and 890 ± 20 nM | – | – | –
